According to US5614192A, “T cell receptor peptides as therapeutics for immune-related disease” (Connective Therapeutics, Inc., priority 1993, dated 1997):
Ends that are not written are not given here.

Columns and labels:
DH reaction = test: Delayed hypersensitivity (DH) ear swelling to TCR peptide (Example VI); assay type: in vivo, Lewis rats; settings: to 50 μg TCR Vβ8(39-59) in Vβ8(39-59)-immunized rats
Method: The Vβ8(39-59)-immunized rats developed both specific antibodies to the Vβ8(39-59) peptide and a delayed hypersensitivity (DH) response of 0.17 mm ear swelling to 50 μg TCR Vβ8(39-59) peptide.

[1] = system: T cell lines derived from rats protected from EAE; test: Proliferation of LN cells and T cell lines from rats protected by TCR Vβ8 peptide (Table 12); assay type: cell-based, rat
[2] = system: LN cells and T cell lines; test: Proliferation of LN cells and lines from rats protected by transfer of TCR Vβ8 peptide-specific T cells (Table 15); assay type: cell-based, rat
Method: ^1 Lymph node (LN) cells were collected 20 days after simultaneous
^2 LN cells were tested directly (NL column).
^3 T cell lines were selected from these LN cells by culture with TCR

EAE = test: Clinical EAE in rats treated with TCR Vβ8(39-59) before or after onset (Table 22); assay type: in vivo
Method: The ability of the TCR Vβ8(39-59) given either SC (in adjuvant) or ID (in saline) to disrupt the disease process when given at various times after induction of EAE with GPBP was tested (Table 22). […] In both cases, with both routes of injection of the peptide, there was a significant reduction in the duration of the disease, though not in the severity or time of onset. The efficacy of the peptide given in saline via the ID route is of particular importance to human therapy, as it is preferred to SC injection in adjuvant.
In Experiment 2, the time of ID administration of the TCR peptide was varied, as was the dose. […] A delay in onset of the disease was also observed. Furthermore, the percentage of animals showing signs of the disease decreased. A larger dose of the peptide (200 μg) appeared less efficacious than the lower dose, possibly due to a short-term overload of the peptide which could have comprised the immune response generated against the TCR. Treatment with a similarly sized peptide corresponding to an irrelevant TCR had no effect on onset, severity or incidence of EAE, but may have reduced the duration somewhat (last line of Table 22).

popliteal LN cells = test: Proliferation of LN cells after EAE induction and TCR peptide treatment (Table 23); assay type: cell-based, Lewis rats
Method: The proliferative responses and specificity of T cells in the draining LN (popliteal) of rats treated with TCR Vβ8(39-59) peptide for EAE on day 13 after disease induction were examined (Table 23). On day 0, Lewis rats received an EAE-inducing regimen of GP-BP+CFA SC into their hind footpads. […] On day 20, about 7 days after onset of EAE, popliteal LNs were removed and T cell proliferative activity in response to the indicated antigens or mitogens were tested directly.
Results are shown as net ^3 Hthymidine incorporation of 5 ×

DTH response = test: Delayed hypersensitivity responses to TCR peptides, ear swelling (Table 26); assay type: in vivo, Lewis rats
[3] = system: Vβ8-44-54 reactive T cell clones; test: Specificity of Vβ8-44-54 reactive T cell clones, proliferation (Table 37); assay type: cell-based, rat
Method: Proliferation assays: Proliferation assays were performed in 96-well microtiter plates. 2×10^4 T cells and 10^6 irradiated thymocytes/well were incubated with stimulation medium only, ConA, or antigen at 37C in 7% CO2. The cultures were incubated for 72 h, the last 18 h in the presence of 0.5 Bq ^3 H-Tdr. The cells were harvested onto glass fiber filters and TCR uptake was assessed by liquid scintillation. Mean CPM wre calculated from triplicate wells. The standard deviation from replicate wells varied <10% from the mean values. In some experiments, azide free antibodies to MHC I (OX-18) or MHC II (OX-6, anti-I-A and OX-17, anti-I-E) were added to the cultures to evaluate which MHC molecules were used to restrict the T cell response to TCR Vβ8-44-54 peptide.
Isolation of Vβ8-44-54 reactive T cell clones. To characterize the anti-TCR peptide response on the clonal level, ten clones were isolated and characterized from the initial T cell line. As is shown in Table 37, each of the clones responded strongly to the Vβ8-44-54 peptide with stimulation indices ranging from 10× to 1300×, and weakly or not at all to the Vβ8.2-39-59 or Vβ8.6-39-59 peptides. Three of the four clones challenged with all three of the peptides responded selectively to the consensus Vβ8-44-54 peptide, whereas only one clone (B7) reflected the T cell line pattern of response characterized by response to Vβ8-44-54 >Vβ8.6-39-59 >Vβ8.2-39-59 (Table 37). Loss of viability of the clones precluded individual testing of EAE-protective activity.

passive EAE = test: Treatment of passively induced EAE with TCR Vβ8 peptides (FIGS. 21A, 22); assay type: in vivo, rats
[4] = system: lymph node cells and Vβ8-44-54 selected T cell line
[5] = A. TCR Vβ8 peptide-specific T cell transfer
[6] = Exp. 1, 100 μg SC in CFA, day 10
[7] = Exp. 1, 100 μg SC in CFA, day 13

**Q.** With “DMGHGLRLIHYSYDVNSTEKG [TCR Vβ8(39-59), 21-amino acid CDR2 peptide of rat TCR Vβ8]” as the sequence, how does the “delayed hypersensitivity (DH) response, ear swelling” value (DH reaction) read?
**A.** The value was 0.17 mm.

**Q.** And the “T Cell Proliferation” value ([1]; 1st value column (head not given; LN cells of protected rats))?
**A.** Its value is 27 cpm × 10^-3.

**Q.** And the “T Cell Proliferation” value ([1]; 2nd value column (head not given, TCR Vβ8(39-59)-selected line))?
**A.** Its value is 100 cpm × 10^-3.

**Q.** What about the “T Cell Proliferation” value ([1]; 4th value column (head not given; mixed TCR- and BP-specific T cells)) of the same sequence?
**A.** The value was 140 cpm × 10^-3.

**Q.** What about the “T Cell Proliferation” value ([1]; +OX-6 (anti I-A)) of the same sequence?
**A.** Its value is 99 cpm × 10^-3.

**Q.** What about the “T Cell Proliferation” value ([1]; +OX-8 (anti-CD8)) of the same sequence?
**A.** The value was 22 cpm × 10^-3.

**Q.** And the “T Cell Proliferation” value ([1]; +OX-17 (anti I-E))?
**A.** Its value is 100 cpm × 10^-3.

**Q.** What about the “T Cell Proliferation” value ([1]; +OX-18 (anti class 1)) of the same sequence?
**A.** Its value is 31 cpm × 10^-3.

**Q.** What about the “T Cell Proliferation” value ([1]; +W3/25 (anti-CD4)) of the same sequence?
**A.** Its value is 105 cpm × 10^-3.

**Q.** What about the “T Cell Proliferation” value ([1]; GPBP-selected line) of the same sequence?
**A.** Its value is 1 cpm × 10^-3.

**Q.** And the “Proliferation, GPBP Selected Line” value [2, 5]?
**A.** Its value is 6 cpm × 10^-3.

**Q.** And the “Proliferation, TCR Peptide Selected Line” value [2, 5]?
**A.** The value was 52 cpm × 10^-3.

**Q.** And the “Proliferation, LN” value ([2]; A. rats given 3 × 10^7 TCR Vβ8 peptide-specific T cells + GPBP/CFA, LN cells day 20)?
**A.** The value was 90 cpm × 10^-3.

**Q.** What about the “Proliferation, GPBP Selected Line” value ([2]; B. Saline + GPBP/CFA) of the same sequence?
**A.** The value was 6 cpm × 10^-3.

**Q.** What about the “Proliferation, LN” value ([2]; B. Saline + GPBP/CFA) of the same sequence?
**A.** The value was 8 cpm × 10^-3.

**Q.** And the “Day of Onset” value (EAE; Exp. 1, 50 μg ID, day 13)?
**A.** The value was 13.4 ± 0.5.

**Q.** And the “Disease Duration” value (EAE; Exp. 1, 50 μg ID, day 13)?
**A.** The value was 3.2 ± 0.5.

**Q.** What about the “Disease Incidence” value (EAE; Exp. 1, 50 μg ID, day 13) of the same sequence?
**A.** Its value is 5/5.

**Q.** And the “Disease Severity” value (EAE; Exp. 1, 50 μg ID, day 13)?
**A.** Its value is 2.6 ± 0.4.

**Q.** What about the “Day of Onset” value (EAE; [6]) of the same sequence?
**A.** Its value is 14.0 ± 0.4.

**Q.** And the “Disease Duration” value (EAE; [6])?
**A.** Its value is 3.2 ± 0.4.

**Q.** What about the “Disease Incidence” value (EAE; [6]) of the same sequence?
**A.** Its value is 5/5.

**Q.** And the “Disease Severity” value (EAE; [6])?
**A.** The value was 2.8 ± 0.4.

**Q.** What about the “Day of Onset” value (EAE; [7]) of the same sequence?
**A.** Its value is 13.0 ± 0.

**Q.** And the “Disease Duration” value (EAE; [7])?
**A.** Its value is 4.0 ± 0.

**Q.** What about the “Disease Incidence” value (EAE; [7]) of the same sequence?
**A.** Its value is 5/5.

**Q.** And the “Disease Severity” value (EAE; [7])?
**A.** The value was 3.0 ± 0.

**Q.** And the “Day of Onset” value (EAE; Exp. 2, 50 μg ID, day 7)?
**A.** Its value is 15.0 ± 0.8.

**Q.** What about the “Disease Duration” value (EAE; Exp. 2, 50 μg ID, day 7) of the same sequence?
**A.** The value was 2.0 ± 2.0.

**Q.** And the “Disease Incidence” value (EAE; Exp. 2, 50 μg ID, day 7)?
**A.** The value was 4/6.

**Q.** What about the “Disease Severity” value (EAE; Exp. 2, 50 μg ID, day 7) of the same sequence?
**A.** Its value is 1.7 ± 1.4.

**Q.** What about the “Day of Onset” value (EAE; Exp. 2, 50 μg ID, day 14) of the same sequence?
**A.** The value was 16.0 ± 1.

**Q.** And the “Disease Duration” value (EAE; Exp. 2, 50 μg ID, day 14)?
**A.** The value was 2.3 ± 2.0.

**Q.** And the “Disease Incidence” value (EAE; Exp. 2, 50 μg ID, day 14)?
**A.** Its value is 4/6.

**Q.** What about the “Disease Severity” value (EAE; Exp. 2, 50 μg ID, day 14) of the same sequence?
**A.** The value was 1.7 ± 1.5.

**Q.** What about the “Day of Onset” value (EAE; Exp. 2, 50 μg, day 0) of the same sequence?
**A.** Its value is 15.6 ± 2.6.

**Q.** And the “Disease Duration” value (EAE; Exp. 2, 50 μg, day 0)?
**A.** Its value is 2.3 ± 1.6.

**Q.** What about the “Disease Incidence” value (EAE; Exp. 2, 50 μg, day 0) of the same sequence?
**A.** Its value is 5/6.

**Q.** And the “Disease Severity” value (EAE; Exp. 2, 50 μg, day 0)?
**A.** Its value is 1.8 ± 1.0.

**Q.** What about the “Day of Onset” value (EAE; Exp. 2, 200 μg ID, day 13) of the same sequence?
**A.** Its value is 14.0 ± 1.4.

**Q.** What about the “Disease Duration” value (EAE; Exp. 2, 200 μg ID, day 13) of the same sequence?
**A.** Its value is 3.0 ± 1.2.

**Q.** And the “Disease Incidence” value (EAE; Exp. 2, 200 μg ID, day 13)?
**A.** The value was 6/6.

**Q.** What about the “Disease Severity” value (EAE; Exp. 2, 200 μg ID, day 13) of the same sequence?
**A.** The value was 2.3 ± 0.8.

**Q.** What about the “T Cell Proliferation” value (popliteal LN cells; LN cells day 20 of Control rats (saline day 13)) of the same sequence?
**A.** Its value is 31 cpm × 10^-3.

**Q.** And the “T Cell Proliferation” value (popliteal LN cells; LN cells of rats given TCR Vβ 8(39-59) 50 μg ID day 13)?
**A.** Its value is 30 cpm × 10^-3.

**Q.** What about the “T Cell Proliferation” value (popliteal LN cells; LN cells of rats given TCR Vβ 8(39-59) 100 μg SC (in CFA) day 13) of the same sequence?
**A.** Its value is 39 cpm × 10^-3.

**Q.** And the “48 Hour DTH Response” value (DTH response; GP-BP/CFA immunized rats, ear test Day 12 (EAE onset))?
**A.** The value was 11 ± 2.

**Q.** And the “48 Hour DTH Response” value (DTH response; Normal or saline/CFA rats, ear test Day 12)?
**A.** The value was 6 ± 3.

**Q.** What about the “48 Hour DTH Response” value (DTH response; TCR Vβ8 peptide/CFA immunized rats, ear test Day 30) of the same sequence?
**A.** The value was 36 ± 8.

**Q.** What about the “48 Hour DTH Response” value (DTH response; TCR Vβ814 (so in the source) peptide/CFA immunized rats, ear test Day 30) of the same sequence?
**A.** Its value is 6 ± 3.

**Q.** And the “Proliferation Response” value ([3]; Clone B3)?
**A.** The value was 1.1 CPM/1000.

**Q.** And the “Proliferation Response” value ([3]; Clone B7)?
**A.** Its value is 3 CPM/1000.

**Q.** And the “Proliferation Response” value ([3]; Clone B11)?
**A.** Its value is 0.7 CPM/1000.

**Q.** What about the “Proliferation Response” value ([3]; Clone D1) of the same sequence?
**A.** The value was 0.8 CPM/1000.

**Q.** What about the “Proliferation Response” value ([3]; Line) of the same sequence?
**A.** The value was 102 CPM/1000.

**Q.** What about the “severity and duration of passively induced EAE” value (passive EAE; EAE induced by Vβ8.2+ T cell lines specific for BP) of the same sequence?
**A.** The value was “marked reduction in the severity and duration of EAE”.

**Q.** And the “protection from lethal EAE” value (passive EAE; rat, in vivo)?
**A.** The value was “protected all of the recipients from lethal EAE”.

**Q.** And the “Response of Lymph Node Cells” value [4]?
**A.** Its value is 38 ± 3.

**Q.** What about the “Response of T Cell Line” value [4] of the same sequence?
**A.** The value was 102 ± 10.
